Values after ≈ are worked out from the molar mass of the structure shown. Active and inactive are the calls of the source. No cut-off for these calls is given here.

Test [1] deals with Staphylococcus aureus. Nature of the test: Antimicrobial activity against Staphylococcus aureus ACC 601065 after 24 hrs by broth microdilution method. It counts as functional. To be noted: ACC 601065, 24 h. (In general: Broth dilution looks for growth in wells or tubes with falling amounts of substance.)
Test [2] has as its system Staphylococcus aureus. Nature of the test: Antimicrobial activity against Staphylococcus aureus ACC 601065 compound preincubated with 0.1 M hydrochoric acid for 40 mins measured after 24 hrs by broth microdilution method. It counts as functional.
The test system of test [3] is Streptococcus pyogenes. As to the kind of experiment: Antimicrobial activity against Streptococcus pyogenes after 24 hrs by broth microdilution method. It counts as functional.
Test [4] concerns Streptococcus pyogenes. Nature of the test: Antimicrobial activity against Streptococcus pyogenes compound preincubated with 0.1 M hydrochoric acid for 40 mins measured after 24 hrs by broth microdilution method. It counts as functional.
The subject of test [5] is Haemophilus influenzae. Nature of the test: Antimicrobial activity against Haemophilus influenzae ATC 12699 after 24 hrs by broth microdilution method. It counts as functional. As to conditions: ATC 12699, 24 h.
Test [6] has as its system Haemophilus influenzae. As to the kind of experiment: Antimicrobial activity against Haemophilus influenzae ATC 12699 compound preincubated with 0.1 M hydrochoric acid for 40 mins measured after 24 hrs by broth microdilution method. It counts as functional.
The subject of test [7] is Escherichia coli. As to the kind of experiment: Binding affinity to Escherichia coli MRE 600 30S ribosome in 2M LiCl in buffered D2O at pH 7.4 by NMR analysis.
Test [8] relates to Escherichia coli. Nature of the test: Binding affinity to Escherichia coli MRE 600 50S ribosome in 2M LiCl in buffered D2O at pH 7.4 by NMR analysis.
Test [9] relates to Burkholderia cepacia. Nature of the test: Antimicrobial activity against Burkholderia cepacia after 24 hrs by broth microdilution method. It counts as functional, organism-based.
Test [10] has as its system Burkholderia cepacia. As to the kind of experiment: Antimicrobial activity against Burkholderia cepacia compound preincubated with 0.1 M hydrochoric acid for 40 mins measured after 24 hrs by broth microdilution method. It counts as functional, organism-based.

Consider `CC[C@H]1OC(=O)[C@H](C)[C@@H](O[C@H]2C[C@@](C)(OC)[C@@H](O)[C@H](C)O2)[C@H](C)[C@@H](O[C@@H]2O[C@H](C)C[C@H](N(C)C)[C@H]2O)[C@](C)(O)C[C@@H](C)C(=O)[C@H](C)[C@@H](O)[C@H]1C` [BERYTHROMYCIN], for which the MIC was 0.7 µg/mL (≈ 0.975 µM) in the test with Staphylococcus aureus [1]; 1.4 µg/mL (≈ 1.95 µM) in the test with Staphylococcus aureus [2]; 0.2 µg/mL (≈ 0.279 µM) in the test on Streptococcus pyogenes [3]; 0.3 µg/mL (≈ 0.418 µM) in the test with Streptococcus pyogenes [4]; 2.3 µg/mL (≈ 3.2 µM) in the test with Haemophilus influenzae [5]; 3.6 µg/mL (≈ 5.01 µM) against Haemophilus influenzae [6]. The result with Escherichia coli [7] was inactive. For the same compound, the result in the test with Escherichia coli [8] was Active. For the same compound, the MIC result with Burkholderia cepacia [9] and with Burkholderia cepacia [10] was “inactive” throughout.
On to `CC[C@H]1OC(=O)[C@H](C)[C@@H](O[C@H]2C[C@@](C)(OC)[C@@H](O)[C@H](C)O2)[C@H](C)[C@@H](O[C@@H]2O[C@H](C)C[C@H](N(C)C)[C@H]2O)[C@](C)(OC)C[C@@H](C)C(=O)[C@H](C)[C@@H](O)[C@]1(C)O` [CLARITHROMYCIN], for which the MIC in the test with Staphylococcus aureus [1] is 0.6 µg/mL (≈ 0.802 µM); in the test on Staphylococcus aureus [2], 0.9 µg/mL (≈ 1.2 µM); against Streptococcus pyogenes [3], 0.2 µg/mL (≈ 0.267 µM); in the test with Streptococcus pyogenes [4] it was 0.3 µg/mL (≈ 0.401 µM); against Haemophilus influenzae [5], 0.6 µg/mL (≈ 0.802 µM); against Haemophilus influenzae [6], 1.8 µg/mL (≈ 2.41 µM). For the same compound, the MIC entry with Burkholderia cepacia [9] and in the test on Burkholderia cepacia [10] was “inactive” throughout.
For the compound `CC[C@H]1OC(=O)[C@H](C)[C@@H](O[C@H]2C[C@@](C)(OC)[C@@H](O)[C@H](C)O2)[C@H](C)[C@@H](O[C@@H]2O[C@H](C)C[C@H](N(C)C)[C@H]2O)[C@](C)(O)C[C@@H](C)C(=O)[C@H](C)[C@@H](O)[C@]1(C)O` [ERYTHROMYCIN], the MIC was 0.9 µg/mL (≈ 1.23 µM) against Staphylococcus aureus [1]; over 8 µg/mL in the test with Staphylococcus aureus [2]; 0.2 µg/mL (≈ 0.273 µM) against Streptococcus pyogenes [3]; 1 µg/mL (≈ 1.36 µM) in the test with Streptococcus pyogenes [4]; 2.2 µg/mL (≈ 3 µM) against Haemophilus influenzae [5]; over 4 µg/mL against Haemophilus influenzae [6]. The MIC entry in the test on Burkholderia cepacia [9] and with Burkholderia cepacia [10] was “inactive” throughout.
